“And” between values parts separate entries of the source, which are not always exact repeats. Equal entries are not always repeated.

The results in this text go back to US9320271B2, “Microbial composition” (Rohm and Haas Company, priority 2011, dated 2016).

The subject of assay [1] is Escherichia coli (E. coli—ATCC #10536). In words: Synergy test: high resolution MBC microtiter plate assay, phosphate buffer containing 35% dipropylene glycol, 15 seconds contact. It counts as cell-based. Particulars: E. coli 10536. An excerpt: The concentrations and ratios may also vary under different test conditions or with different test methods.
One measure of synergy is the industrially accepted method described by Kull, F. C.; Eisman, P. C.; Sylwestrowicz, H. D, and Mayer, R. L., in Applied Microbiology 9:538-541 (1961), using the ratio determined by the formula: […]=Synergy Index (“SI”) wherein; QA=concentration of compound A (first component) in percent, acting alone, which produced an end point (MBC of Compound A). Qa=concentration of compound A in percent, in the mixture, which produced an end point. QB=concentration of compound B (second component) in percent, acting alone, which, produced an end point (MBC of Compound B). Qb=concentration of compound B in percent, in the mixture, which produced an end point.
When the sum of Qa/QA and Qb/QB is greater than one, antagonism is indicated. […] The lower the SI, the greater is the synergy shown by that particular mixture. The minimum biocidal concentration (MBC) of a microbicide is the lowest concentration tested under a specific set of conditions that provides complete kill of the tested microorganisms.
Synergy tests were conducted using standard microliter plate assays with phosphate buffer containing 35% dipropylene glycol (DPG). In this method, a wide range of combinations of chemicals was tested by conducting high resolution MBC assays of Component (A) in the presence of various concentrations of Component (B). High resolution MBCs were determined by adding varying amounts of microbicide to one column of a microliter plate and doing subsequent […] dilutions using an automated liquid handling, system to obtain a series of closely spaced endpoints. The MBC plate was inoculated one column at a time with the test microorganism. An aliquot of the inoculated well was transferred at 15 seconds to a plate containing a neutralizing agent (D/E Neutralizing Broth), mixed and held for 5 minutes before being transferred to a growth plate containing trypticase soy broth (TSB). The TSB plate was incubated at 37° C. and read for the presence/absence of growth at 24 hours. The lowest level tested that provided complete kill (as evidenced by no growth in the microtitre plate) of the test organisms in 15 seconds is the minimum biocidal concentration (MBC).
The synergy of the combinations of the present invention was determined against a bacterium, Escherichia coli (E. coli—ATCC #10536), at a concentration of approximately 1×10^8 it bacteria per mL. This microorganism is representative of natural contaminants in many consumer and industrial applications.

Assay [2] deals with Staphylococcus aureus (10788 strain). The experiment in a line: 15 second contact kill test / antimicrobial efficacy of actives against S. aureus in water. Type of assay: cell-based. As for the experimental part:
Selected materials were also tested against a representative Grant positive Staphylococcus aureus. An overnight culture of Staphylococcus aureus (10788 strain) was inoculated onto a […] Soy Agar (TSA) plate and grown for ca. 18 hrs at 37° C. The culture S. aureus was washed from the plate using sterile saline (0.85% NaCl) solution and a sterile spreader and suspended in 50 ml saline. This suspension was separated into equal volumes and centrifuged at 4000 rpm for 15 minutes. […] Here, OD620 indicates the absorbance of a sample in a cuvette of 1.0 cm path length at a wavelength of 620 nm. This bacterial stock was used for assaying against antimicrobial actives (in triplicate). The following assay describes the testing of 8 materials using 6 dilutions across half of a 96-well micro titre plate (MTP). Using this approach it is possible to assay 16 actives (without replicates) with one full dilution plate, replicating this set up in two halves of the plate columns, 1-6 and 7-12. 1M solutions of the test actives were prepared in dimethylsulphoxide (DMSO). […] Aliquots (270 μl) of the materials at 1.11 times the final concentration were dispensed into the wells of the MTP along one column (A1-H1). This MTP was labelled as the “Screening plate”. In another MTP, labelled as the “Dilution plate”, […] of D/E neutralising solution from DIFCO Composition was added to column 1. The composition of the neutralising solution was as follows: pancreatic digest of casein, 5.0 g/L; […] Dextrose, 10 g/L, sodium thioglycollate, 1.0 g/L, sodium thiosulphate, 6.0 g/L; sodium bisulphite, 2.5 g/L; […] […] From the colony number in this segment, NMBS is calculated by the formula: NMBS=log {Ncol·10^DF·100/3} Here, Ncol is the colony count, and DF is the dilution factor taken from the MTP-well corresponding to the TSA plate segment (i.e. DF may range from 1 for the quench, to 6 for the highest dilution). […] Here, OD620 indicates the absorbance of a sample in a cuvette of 1.0 cm path length at a wavelength, of 620 nm. […]

As for `C=C(C)C1CC=C(CO)CC1` (stereo not shown) [(4-(prop-1-en-2-yl)cyclohex-1-enyl)methanol], the “SI (Synergy Index)” value in assay [1] (at Qa and Qb, less than one = synergy) is recorded as 1.00. Moreover, in assay [1] (complete kill in 15 seconds, component alone), the “MBC of the component acting alone (QA / QB; Qa or Qb where the other component is 0)” value is 0.5 weight % and 0.3 weight %. The “S. aureus 6538 Log Reduction” value in assay [2] (0.2% perillyl alcohol alone) came out at 0.22; in assay [2] (0.25 Perillyl alcohol alone), 0.5.
